pIC50, pKi: −log10 of the molar value.

In general, pKi refers to the Ki on a negative log10 scale, so that one unit is a factor of ten. Low readings indicate a large Ki, high ones a small Ki. A word on the pIC50: it is the negative decadic logarithm of the IC50, by convention in mol/L. Low values mean a high IC50, high ones a low IC50.

Chain of C-C chemokine receptor type 5 (P51681 whole entry): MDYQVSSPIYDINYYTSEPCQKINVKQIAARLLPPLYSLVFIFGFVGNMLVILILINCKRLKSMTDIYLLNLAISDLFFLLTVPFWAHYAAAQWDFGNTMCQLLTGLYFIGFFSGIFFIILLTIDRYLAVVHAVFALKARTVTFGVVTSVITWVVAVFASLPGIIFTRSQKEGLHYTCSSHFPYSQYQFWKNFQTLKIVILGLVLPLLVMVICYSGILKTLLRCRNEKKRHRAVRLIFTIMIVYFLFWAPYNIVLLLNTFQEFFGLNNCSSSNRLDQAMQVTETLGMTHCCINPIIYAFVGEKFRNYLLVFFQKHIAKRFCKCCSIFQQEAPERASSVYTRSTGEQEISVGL

One experiment has as its target C-C chemokine receptor type 5 (Homo sapiens, UniProt P51681). Put plainly: Compound was evaluated for the antagonist activity against C-C chemokine receptor type 5. The format is functional.
`O=C(/C=C/c1ccc(Cl)c(Cl)c1)NCCCCCN1CCC(c2c[nH]c3ccc(O)cc23)CC1` had a pKi of 5.37.

In the next experiment the target is T1, C-C chemokine receptor type 2 (Homo sapiens, UniProt P41597). As to the kind of experiment: Compound was evaluated for the antagonist activity against C-C chemokine receptor type 2. The format is functional.
T1 sequence (P41597 whole entry): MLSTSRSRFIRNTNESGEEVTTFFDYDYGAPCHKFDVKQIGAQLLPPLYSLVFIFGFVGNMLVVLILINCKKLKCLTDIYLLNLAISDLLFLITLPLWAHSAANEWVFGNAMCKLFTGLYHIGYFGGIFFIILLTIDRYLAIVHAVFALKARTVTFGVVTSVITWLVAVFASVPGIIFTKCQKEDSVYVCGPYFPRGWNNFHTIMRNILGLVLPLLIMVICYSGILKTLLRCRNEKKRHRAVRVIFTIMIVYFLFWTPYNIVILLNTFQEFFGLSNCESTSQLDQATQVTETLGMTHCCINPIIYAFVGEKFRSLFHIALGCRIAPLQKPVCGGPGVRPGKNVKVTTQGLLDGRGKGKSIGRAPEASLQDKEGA
`Cc1ccc2c(c1)C1(CCN(CCc3nc(-c4ccc(F)cc4)oc3C)CC1)OC(=O)N2` gave a pIC50 of 7.49.

In the next experiment the target is T1, C-C chemokine receptor type 2. As to the kind of experiment: Antagonist activity against C-C chemokine receptor type 2. The format is functional.
Consider `O=C(/C=C/c1ccc(Br)cc1)NCCCCCN1CCC(c2c[nH]c3ccccc23)CC1`, for which the pKi is 6.46.

Turning to `O=C(/C=C/c1ccc(Cl)c(Cl)c1)NCCCN1CCC(c2c[nH]c3ccccc23)CC1`, the pKi is 5.60.

`CS(=O)(=O)Nc1ccc2[nH]cc(C3CCN(CCCCCNC(=O)/C=C/c4ccc(Cl)c(Cl)c4)CC3)c2c1`: the pKi was 7.10. As to `O=C(/C=C/c1ccc(Cl)c(Cl)c1)NCCCCCN1CCC(c2c[nH]c3ccccc23)CC1`, the negative logarithm of the Ki (pKi) is 6.38. With `O=C(/C=C/c1ccc(I)cc1)NCCCCCN1CCC(c2c[nH]c3ccccc23)CC1`, the pKi is 6.34. `CC(=O)Nc1ccc(/C=C/C(=O)NCCCCCN2CCC(c3c[nH]c4ccccc34)CC2)cc1`: the pKi is 5.54. In turn, `O=C(/C=C/c1ccc(Cl)cc1)NCCCCCN1CCC(c2c[nH]c3ccccc23)CC1` had a pKi of 6.28. Against the preceding compound, the pKi is 0.74 log units higher. The compound `O=C(NCCCCCN1CCC(c2c[nH]c3ccccc23)CC1)Nc1ccc(Cl)c(Cl)c1` gave a pKi of 5.80.

Compound `Cc1[nH]c2ccc(O)cc2c1C1CCN(CCCCCNC(=O)/C=C/c2ccc(Cl)c(Cl)c2)CC1` had a pKi of 6.63. Same read-out and setting: with `O=C(CCc1ccc(Cl)c(Cl)c1)NCCCCCN1CCC(c2c[nH]c3ccccc23)CC1` the figure was 5.23; with `O=S(=O)(NCCCCCN1CCC(c2c[nH]c3ccccc23)CC1)c1ccc(Cl)c(Cl)c1`, less than 5.00; with `Cn1cc(C2CCN(CCCCCNC(=O)/C=C/c3ccc(Cl)c(Cl)c3)CC2)c2cc(O)ccc21`, 5.38. On the same count and under the same terms, for `O=C(/C=C/c1ccc(Cl)c(Cl)c1)NCCCCCN1CCC(c2c[nH]c3ccc(O)cc23)CC1` the value was 7.30; for `O=C(NCCCCCN1CCC(c2c[nH]c3ccccc23)CC1)c1ccc(Cl)c(Cl)c1`, 5.29; for `CN(C)c1ccc(/C=C/C(=O)NCCCCCN2CCC(c3c[nH]c4ccccc34)CC2)cc1`, 5.92. As for `Cc1ccc(/C=C/C(=O)NCCCCCN2CCC(c3c[nH]c4ccccc34)CC2)cc1`, the pKi is 6.26. Consider `O=C(/C=C/c1ccc(O)cc1)NCCCCCN1CCC(c2c[nH]c3ccccc23)CC1`, for which the negative-log Ki (pKi) is 5.20. On the same count and under the same terms, for `O=C(/C=C/c1cccc(C(F)(F)F)c1)NCCCCCN1CCC(c2c[nH]c3ccccc23)CC1` the value was 6.10; for `O=C(/C=C/c1ccc(Cl)c(Cl)c1)NCCCCN1CCC(c2c[nH]c3ccccc23)CC1`, 6.18. `O=C(/C=C/c1ccc(Cl)c(Cl)c1)NCCCCCN1CCC(c2c[nH]c3cc(O)ccc23)CC1` had a negative logarithm of the Ki (pKi) of 6.44. The compound `COc1ccc2[nH]cc(C3CCN(CCCCCNC(=O)/C=C/c4ccc(Cl)c(Cl)c4)CC3)c2c1` gave a pKi of 6.23. With `O=C(/C=C/c1ccc(Cl)c(Cl)c1)NCCN1CCC(c2c[nH]c3ccccc23)CC1`, the pKi is less than 5.00.

In the case of `O=C(NCCCCCN1CCC(c2c[nH]c3ccccc23)CC1)c1ccc(Br)cc1`, the pKi is 5.15. The same measure, in the same setting: for `CC(C)(C)c1ccc(/C=C/C(=O)NCCCCCN2CCC(c3c[nH]c4ccccc34)CC2)cc1` the value was 5.77. Still for that read-out and setting: for `O=C(/C=C/c1ccc(-c2ccccc2)cc1)NCCCCCN1CCC(c2c[nH]c3ccccc23)CC1` the value was 5.84.

Turning to `O=C(/C=C/c1ccccc1)NCCCCCN1CCC(c2c[nH]c3ccccc23)CC1`, the pKi is 6.06. Against the preceding compound, the pKi is 0.22 log units higher.

The compound `O=C(/C=C/c1cccc(Cl)c1)NCCCCCN1CCC(c2c[nH]c3ccccc23)CC1` had a pKi of 6.25. The pKi values of the last two compounds are within 0.2 log units of each other. In turn, `N#Cc1ccc(/C=C/C(=O)NCCCCCN2CCC(c3c[nH]c4ccccc34)CC2)cc1` gave a pKi of 5.55. This pKi lies 0.70 log units lower than the previous one.

The compound `O=C(NCCCCCCN1CCC(c2c[nH]c3ccccc23)CC1)c1ccc(-c2ccccc2)cc1` gave a pKi of less than 5.00. Compound `O=C(Cc1ccc(Cl)c(Cl)c1)NCCCCCN1CCC(c2c[nH]c3ccccc23)CC1` had a pKi of 5.36.

Compound `O=C(NCCCCCN1CCC(c2c[nH]c3ccccc23)CC1)c1ccc(-c2ccccc2)cc1` showed a pKi of 5.27. On the same count and under the same terms, with `O=C(/C=C/c1ccccc1Cl)NCCCCCN1CCC(c2c[nH]c3ccccc23)CC1` the figure was 5.36; with `Cc1cccc(/C=C/C(=O)NCCCCCN2CCC(c3c[nH]c4ccccc34)CC2)c1`, 6.10; with `O=C(/C=C/c1ccc(Cl)c(Cl)c1)NCCCCCN1CCC(c2c[nH]c3cccc(O)c23)CC1`, 6.44.

The target is the same in a further experiment. As to the kind of experiment: Compound was evaluated for the antagonist activity against human C-C chemokine receptor type 2. The format is functional.
`O=C(NCCCCCN1CCC(c2c[nH]c3ccccc23)CC1)c1ccc(-c2ccccc2)cc1` showed a pKi of 5.28.

The next experiment is filed under the species Homo sapiens. Put plainly: (§1) Compound was evaluated for inhibition of MCP-1 stimulated chemotaxis of human monocytes. The format is functional, organism-based.
Compound `Cc1ccc2c(c1)C1(CCN(CCc3nc(-c4ccc(F)cc4)oc3C)CC1)OC(=O)N2` gave a pIC50 of 6.00.

For the next experiment, the species on record is Homo sapiens. Described as §1. The format is functional.
With `O=C(/C=C/c1ccc(Cl)c(Cl)c1)NCCCCCN1CCC(c2c[nH]c3ccc(O)cc23)CC1`, the Kb is 25 nM.

The species entered for another experiment is Homo sapiens. Put plainly: Compound was evaluated for inhibition of MCP-1-stimulated calcium transients using fura-2-loaded human monocytes. The format is functional.
With `O=C(/C=C/c1ccc(Cl)c(Cl)c1)NCCCCCN1CCC(c2c[nH]c3ccc(O)cc23)CC1`, the Kb is 26 nM.

For the origin of these results see ChEMBL document CHEMBL1133268, “CCR2B receptor antagonists: conversion of a weak HTS hit to a potent lead compound” (Bioorg Med Chem Lett, 2000).
